Each block holds one molecule with its values, some of them ahead of it.
Experiments:
[1] = tested on: OVCAR-3; assay: Growth inhibition of the OVCAR-3 Ovarian cancer cell line for 2-day in vitro assay.; format: functional; conditions: Homo sapiens, OVCAR-3, 48 h
[2] = tested on: T47D; assay: Growth inhibition of the T-47D Breast cancer cell line for 2-day in vitro assay.; format: functional; conditions: Homo sapiens, 48 h
[3] = tested on: MCF7; assay: In vitro cytotoxicity against MCF-7 human mammary carcinoma cells; format: functional, cell-based
[4] = tested on: COLO 205; assay: Growth inhibition of the COLO-205 colon cancer cell line for 2-day in vitro assay.; format: functional; conditions: Homo sapiens, COLO 205, 48 h
[5] = tested on: DU-145; assay: Growth inhibition of the DU-145 Prostate cancer cell line for 2-day in vitro assay.; format: functional; conditions: Homo sapiens, DU-145, 48 h
[6] = tested on: ACHN; assay: Growth inhibition of the ACHN Renal cancer cell line for 2-day in vitro assay.; format: functional; conditions: Homo sapiens, 48 h
[7] = tested on: MOLT-4; assay: Growth inhibition of the MOLT-4 leukemia cell line for 2-day in vitro assay.; format: functional; conditions: Homo sapiens, MOLT-4, 48 h
[8] = tested on: CCRF-CEM; assay: Growth inhibition of the CCRF-CEM leukemia cell line for 2-day in vitro assay.; format: functional; conditions: Homo sapiens, 48 h
[9] = tested on: NCI-H460; assay: Growth inhibition of the NCI-H460 non-small cell lung cancer cell line for 2-day in vitro assay.; format: functional; conditions: Homo sapiens, NCI-H460, 48 h
[10] = tested on: SF-268; assay: Growth inhibition of the SF-268 CNS cancer cell line for 2-day in vitro assay.; format: functional; conditions: Homo sapiens, SF-268, 48 h
[11] = tested on: SR; assay: Growth inhibition of the SR leukemia cell line for 2-day in vitro assay.; format: functional; conditions: Homo sapiens, 48 h
[12] = tested on: OVCAR-5; assay: Growth inhibition of the OVCAR-5 Ovarian cancer cell line for 2-day in vitro assay.; format: functional; conditions: Homo sapiens, OVCAR-5, 48 h
[13] = tested on: Hs-578T; assay: Growth inhibition of the Hs 578.T Breast cancer cell line for 2-day in vitro assay.; format: functional; conditions: Homo sapiens, 48 h
[14] = tested on: UACC-62; assay: Growth inhibition of the UACC-62 Melanoma cancer cell line for 2-day in vitro assay.; format: functional; conditions: Homo sapiens, UACC-62, 48 h
[15] = tested on: SNB-19; assay: Growth inhibition of the SNB19 CNS cancer cell line for 2-day in vitro assay.; format: functional; conditions: Homo sapiens, SNB-19, 48 h
[16] = tested on: A549; assay: Growth inhibition of the A549/ATCC non-small cell lung cancer cell line for 2-day in vitro assay.; format: functional; conditions: Homo sapiens, A549, 48 h
[17] = tested on: SW-620; assay: Growth inhibition of the SW-620 colon cancer cell line for 2-day in vitro assay.; format: functional; conditions: Homo sapiens, SW-620, 48 h
[18] = tested on: NCI-H522; assay: Growth inhibition of the NCI-H522 non-small cell lung cancer cell line for 2-day in vitro assay.; format: functional; conditions: Homo sapiens, NCI-H522, 48 h
[19] = tested on: SK-MEL-2; assay: Growth inhibition of the SK-MEL-2 Melanoma cancer cell line for 2-day in vitro assay.; format: functional; conditions: Homo sapiens, SK-MEL-2, 48 h
[20] = tested on: SN12C; assay: Growth inhibition of the SN12C Renal cancer cell line for 2-day in vitro assay.; format: functional; conditions: Homo sapiens, 48 h
[21] = tested on: BT-549; assay: Growth inhibition of the BT-549 Breast cancer cell line for 2-day in vitro assay.; format: functional; conditions: Homo sapiens, BT-549, 48 h
[22] = tested on: TK-10; assay: Growth inhibition of the TK-10 Renal cancer cell line for 2-day in vitro assay.; format: functional; conditions: Homo sapiens, TK-10, 48 h
[23] = tested on: HCT-116; assay: Growth inhibition of the HCT116 colon cancer cell line for 2-day in vitro assay.; format: functional; conditions: Homo sapiens, HCT-116, 48 h
[24] = tested on: HOP-62; assay: Growth inhibition of the HOP-62 non-small cell lung cancer cell line for 2-day in vitro assay.; format: functional; conditions: Homo sapiens, HOP-62, 48 h
[25] = tested on: Malme-3M; assay: Growth inhibition of the MALME-3M Melanoma cancer cell line for 2-day in vitro assay.; format: functional; conditions: Homo sapiens, 48 h
[26] = tested on: RXF 393; assay: Growth inhibition of the RXF-393 Renal cancer cell line for 2-day in vitro assay.; format: functional; conditions: Homo sapiens, RXF 393, 48 h
[27] = tested on: HT-29; assay: Growth inhibition of the HT-29 colon cancer cell line for 2-day in vitro assay.; format: functional; conditions: Homo sapiens, HT-29, 48 h
[28] = tested on: NCI-H226; assay: Growth inhibition of the NCI-H226 non-small cell lung cancer cell line for 2-day in vitro assay.; format: functional; conditions: Homo sapiens, NCI-H226, 48 h
[29] = tested on: SNB-75; assay: Growth inhibition of the SNB-75 CNS cancer cell line for 2-day in vitro assay.; format: functional; conditions: Homo sapiens, SNB-75, 48 h
[30] = tested on: OVCAR-4; assay: Growth inhibition of the OVCAR-4 Ovarian cancer cell line for 2-day in vitro assay.; format: functional; conditions: Homo sapiens, OVCAR-4, 48 h
[31] = tested on: SK-MEL-5; assay: Growth inhibition of the SK-MEL-5 Melanoma cancer cell line for 2-day in vitro assay.; format: functional; conditions: Homo sapiens, SK-MEL-5, 48 h
[32] = tested on: HCT-15; assay: Growth inhibition of the HCT-15 colon cancer cell line for 2-day in vitro assay.; format: functional; conditions: Homo sapiens, HCT-15, 48 h
[33] = tested on: NCI/ADR-RES; assay: Growth inhibition of the NCI/ADR-RES Breast cancer cell line for 2-day in vitro assay.; format: functional; conditions: Homo sapiens, 48 h
[34] = tested on: EKVX; assay: Growth inhibition of the EKVX non-small cell lung cancer cell line for 2-day in vitro assay.; format: functional; conditions: Homo sapiens, 48 h
[35] = tested on: HOP-92; assay: Growth inhibition of the HOP-92 non-small cell lung cancer cell line for 2-day in vitro assay.; format: functional; conditions: Homo sapiens, HOP-92, 48 h
[36] = tested on: LOX IMVI; assay: Growth inhibition of the LOX IMVI Melanoma cancer cell line for 2-day in vitro assay.; format: functional; conditions: Homo sapiens, 48 h
[37] = tested on: SK-MEL-28; assay: Growth inhibition of the SK-MEL-28 Melanoma cancer cell line for 2-day in vitro assay.; format: functional; conditions: Homo sapiens, SK-MEL-28, 48 h
[38] = tested on: NCI-H23; assay: Growth inhibition of the NCI-H23 non-small cell lung cancer cell line for 2-day in vitro assay.; format: functional; conditions: Homo sapiens, NCI-H23, 48 h
[39] = tested on: SK-OV-3; assay: Growth inhibition of the SK-OV-3 Ovarian cancer cell line for 2-day in vitro assay.; format: functional; conditions: Homo sapiens, SK-OV-3, 48 h
[40] = tested on: MDA-MB-435; assay: Growth inhibition of the […] Breast cancer cell line for 2-day in vitro assay.; format: functional; conditions: Homo sapiens, MDA-MB-435, 48 h
[41] = tested on: MDA-MB-231; assay: Growth inhibition of the […] Breast cancer cell line for 2-day in vitro assay.; format: functional; conditions: Homo sapiens, MDA-MB-231, 48 h
[42] = tested on: UO-31; assay: Growth inhibition of the UO-31 Renal cancer cell line for 2-day in vitro assay.; format: functional; conditions: Homo sapiens, UO-31, 48 h
[43] = tested on: OVCAR-8; assay: Growth inhibition of the OVCAR-8 Ovarian cancer cell line for 2-day in vitro assay.; format: functional; conditions: Homo sapiens, OVCAR-8, 48 h
[44] = tested on: PC-3; assay: Growth inhibition of the PC-3 Prostate cancer cell line for 2-day in vitro assay.; format: functional; conditions: Homo sapiens, PC-3, 48 h
[45] = tested on: MCF7; assay: Growth inhibition of the MCF-7 Breast cancer cell line for 2-day in vitro assay.; format: functional; conditions: Homo sapiens, MCF7, 48 h
[46] = tested on: 786-0; assay: Growth inhibition of the 786-O Renal cancer cell line for 2-day in vitro assay.; format: functional; conditions: Homo sapiens, 786-0, 48 h
[47] = tested on: KM12; assay: Growth inhibition of the KM12 colon cancer cell line for 2-day in vitro assay.; format: functional; conditions: Homo sapiens, KM12, 48 h
[48] = tested on: M14; assay: Growth inhibition of the M14 Melanoma cancer cell line for 2-day in vitro assay.; format: functional; conditions: Homo sapiens, M14, 48 h
[49] = tested on: UACC-257; assay: Growth inhibition of the UACC-257 Melanoma cancer cell line for 2-day in vitro assay.; format: functional; conditions: Homo sapiens, UACC-257, 48 h
[50] = tested on: SF-295; assay: Growth inhibition of the SF-295 CNS cancer cell line for 2-day in vitro assay.; format: functional; conditions: Homo sapiens, SF-295, 48 h
[51] = tested on: U-251; assay: Growth inhibition of the U251 CNS cancer cell line for 2-day in vitro assay.; format: functional; conditions: Homo sapiens, U-251, 48 h
[52] = tested on: HCC 2998; assay: Growth inhibition of the HCC2998 colon cancer cell line for 2-day in vitro assay.; format: functional; conditions: Homo sapiens, HCC 2998, 48 h
[53] = tested on: A498; assay: Growth inhibition of the A498 Renal cancer cell line for 2-day in vitro assay.; format: functional; conditions: Homo sapiens, A498, 48 h
[54] = tested on: NCI-H322M; assay: Growth inhibition of the NCI-H322M non-small cell lung cancer cell line for 2-day in vitro assay.; format: functional; conditions: Homo sapiens, 48 h
[55] = tested on: K562; assay: Growth inhibition of the K-562 leukemia cell line for 2-day in vitro assay.; format: functional; conditions: Homo sapiens, K562, 48 h

GI50 [1]: 38.9 µM | GI50 [2]: 22.4 µM | GI50 [4]: > 100 µM | GI50 [5]: 33.9 µM | GI50 [6]: 53.7 µM | GI50 [7]: 26.9 µM | GI50 [8]: 0.794 µM | GI50 [9]: 38.9 µM | GI50 [12]: 83.2 µM | GI50 [16]: 34.7 µM | GI50 [17]: 66.1 µM | GI50 [18]: 30.2 µM | GI50 [19]: > 100 µM | GI50 [21]: 14.1 µM | GI50 [23]: 43.7 µM | GI50 [27]: 37.2 µM | GI50 [28]: 60.3 µM | GI50 [30]: 37.2 µM | GI50 [31]: 52.5 µM | GI50 [32]: > 100 µM | GI50 [37]: 64.6 µM | GI50 [38]: 12.6 µM | GI50 [39]: 37.2 µM | GI50 [40]: 89.1 µM | GI50 [41]: 44.7 µM | GI50 [43]: > 100 µM | GI50 [44]: 50.1 µM | GI50 [45]: 56.2 µM | GI50 [46]: 29.5 µM | GI50 [51]: 31.6 µM | GI50 [52]: > 100 µM | GI50 [54]: 39.8 µM | GI50 [55]: 36.3 µM
Structure (SMILES): Cc1cc(-c2nc3ccc(O)cc3s2)ccc1N
IC50 [3]: < 0.001 µM | GI50 [10]: 35.5 µM | GI50 [11]: 21.9 µM | GI50 [13]: 95.5 µM | GI50 [14]: 57.5 µM | GI50 [15]: 45.7 µM | GI50 [20]: 38.9 µM | GI50 [22]: 77.6 µM | GI50 [24]: 30.9 µM | GI50 [25]: 83.2 µM | GI50 [26]: 30.2 µM | GI50 [29]: 15.8 µM | GI50 [33]: 91.2 µM | GI50 [34]: 4.07 µM | GI50 [35]: > 100 µM | GI50 [36]: > 100 µM | GI50 [42]: 21.4 µM | GI50 [47]: 57.5 µM | GI50 [48]: 33.1 µM | GI50 [49]: > 100 µM | GI50 [50]: 31.6 µM | GI50 [53]: 41.7 µM

Structure (SMILES): CC(=O)ON(C(C)=O)c1ccc(-c2nc3ccccc3s2)cc1C
IC50 [3]: 0.055 µM

Structure (SMILES): Nc1ccc(-c2nc3cc(O)ccc3s2)cc1
IC50 [3]: > 100 µM

Structure (SMILES): CC(=O)Nc1ccc(-c2nc3ccc(O)cc3s2)cc1Cl
IC50 [3]: 71.2 µM

Structure (SMILES): Nc1ccc(-c2nc3c(O)cccc3s2)cc1
IC50 [3]: > 100 µM

Structure (SMILES): Nc1ccc(-c2nc3ccccc3s2)cc1CO
IC50 [3]: 0.006 µM
